In patent US20110300067A1, “METHODS FOR INCREASING EFFICACY OF RADIOIMMUNOTHERAPY OF MELANOMA” (priority 2008, published 2011):

Columns and labels:
A2058 human melanoma [1] = assay: histology of A2058 tumors from DTIC-treated mice (melanin release); type: in vivo; settings: 50 mg/kg IP for 5 days; H&E, iron stain, melanin bleach; FIG. 3
Protocol: Combination of chemotherapy and RIT. For combined chemotherapy with dacarbazine and RIT of A2058 melanoma-bearing nude mice, a preliminary experiment was performed which was aimed at determining the tolerability of dacarbazine by tumor-bearing mice and the ability of dacarbazine treatment to release some melanin from the melanoma cells. For this purpose 10 mg/mL dacarbazine in citrate buffer with pH ˜5.5 was prepared by dissolving 100 mg dacarbazine (Sigma) in 9.5 mL citrate buffer, pH 3.9 and 0.5 mL 0.1 M HCl. Five mice with A2058 tumors were treated for 5 days IP with 50 mg/kg dacarbazine (1.1 mg/mouse). Three days after completion of DTIC treatment, two mice were sacrificed, their tumors removed, fixed in ethanol/buffered formalin, cut into 5 μm slices and analyzed histologically for the presence of melanin by staining with hematoxylin and eosin (H&E), iron staining or by melanin bleach. The slides were viewed under 400× magnification in polarized light.

A2058 human melanoma [2] = assay: chemotherapy, RIT and combination of chemotherapy and RIT in A2058 melanoma-bearing mice; type: in vivo; settings: FIG. 4A
Protocol: Animal model and therapy studies. All animal studies were carried out in accordance with the guidelines of the Institutes for Animal Studies at the Albert Einstein College of Medicine. For RIT studies, 6-12 week-old female nude mice were implanted subcutaneously with 8×10^6 A2058 human melanoma cells into the right flank and used for therapeutic experiments 12 days after tumor volumes were approximately 0.15 cm^3 (0.02-0.4 cm^3).
For the experiment comparing the efficacy of chemotherapy, RIT and combination of chemotherapy, and RIT in A2058 melanoma-bearing mice, mice were inoculated with A2058 melanoma cells, randomized into groups of five after tumor volumes reached 0.15 cm^3 (0.02-0.4 cm^3). On Day 0 the treatment of groups #1 and 2 with 50 mg/kg DTIC for 5 consecutive days IP was initiated. Mice in group #3 received a single IP injection of 1 mCi ^188Re-6D2 mAb on Day 0. Twenty-four hrs after completion of pre-treatment with DTIC (Day 6), mice in group #2 received single IP dose of 1 mCi ^188Re-6D2 mAb. Group #4 was given PBS IP on Day 0.
Statistical analysis. The Wilcoxon rank sum test was used to compare tumor sizes between different treatment groups in therapy studies. Differences were considered statistically significant when P values were <0.05.

A2058 tumor metabolism = assay: ^18F-FDG microPET of RIT or chemotherapy treated melanoma-bearing mice; type: in vivo; settings: re-imaged one week after initial PET scan; FIG. 5
Protocol: MicroPositron Emission Tomography (microPET) of RIT or chemotherapy treated melanoma-bearing mice. To understand the effects of RIT with melanin-binding mAbs and chemotherapy with DTIC on A2058 tumor metabolism, microPET was performed of mice treated with DTIC or with RIT. For this purpose 6-7 mm in diameter tumor-bearing mice were fasted for 3 hrs, then placed in an anesthesia chamber with 1.5% isoflurane-oxygen mixture. Anesthesia continued through the IV injection, during a 1 hr uptake and through the imaging portion of the procedure. Each mouse was placed on a heating pad before scanning to maintain normal body temperature. Mice were injected via tail-vein with 11.1 to 14.8 MBq (300 to 400 μCi) ^18F-FDG and 1 hr later imaged in an R4 microPET scanner manufactured by CTI Concorde. The Full Width at Half Maximum for the R4 is about 2.1 mm with a field of view of 120 mm and a depth of field of 78 mm. Images were acquired for 10 minutes with a lower level discrimination of 350 keV and upper level discrimination of 650 keV. The timing window was set to 6 nsec. All of the default settings were selected during the histogram process. […] Data corrected for dead time counting losses, arc correction, random coincidences and the measured uniformity of detector responses (i.e. normalized) but not corrected for attenuation or scatter. […]

metastatic melanoma = settings: patients with metastatic melanoma; Sun and Schuchter, 2001; cited from earlier work
mouse melanoma models = settings: 50 mg/kg/day×5 days; Fodstad et al. 1980; cited from earlier work

CN(C)N=Nc1[nH]cnc1C(N)=O [DTIC, 5-(3,3-dimethyl-1-triazeno)imidazole-4-carboxamide]
release of melanin from tumor cells (histology) (A2058 human melanoma [1]): releases some melanin from the cells
tumor growth from day 15 (A2058 human melanoma [2]; compared with combined treatment or RIT alone, p=0.02): started to grow much faster
tumor growth up to Day 15 (A2058 human melanoma [2]; early time points post-therapy, compared with RIT alone): more effective in impairing tumor growth than RIT alone
^18F-FDG uptake in tumors (A2058 tumor metabolism): became less diffuse and concentrated in the center of the tumor
response rate (metastatic melanoma): 15% to 20%
tumor growth (mouse melanoma models): effectively slowed tumor growth
